Each structure is given as a SMILES string.

The experiment deals with androgen receptor α (ARα). As to the kind of experiment: Gal4DBD-LBD/UAS luciferase transactivation assay in U-2 OS cells. The experiment is classed as cell-based, Apteronotus albifrons.

In the case of `C[C@]12CC(=O)[C@H]3[C@@H](CCC4=CC(=O)CC[C@@]43C)[C@@H]1CC[C@@H]2O` [11-KT], the EC50 was 10 nM.

`C[C@]12CCC(=O)C[C@@H]1CC[C@@H]1[C@@H]2CC[C@]2(C)[C@@H](O)CC[C@@H]12` [5α-DHT] came in with an EC50 of […].

(Values after publication PMC10695101 (Molecular and cellular endocrinology, 2023).)
